Measurements from patent US12595253B2, “Benzamides of pyrazolylamino-pyrimidinyl derivatives, and compositions and methods thereof” (LYNK PHARMACEUTICALS CO. LTD., priority 2019, dated 2026).

Legend:
JAK2V617F = target: T1, JAK2V617F (Homo sapiens, UniProt O60674, V617F); assay: JAK2V617F microfluidic kinase assay (Caliper EZ Reader II, FAM labeled peptide substrate); assay type: biochemical; details: JAK2V617F 2.5 nM, 1 mM ATP
T1 construct: purchased Carna Biosciences
How it was run: (§1)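 Compounds, serially diluted 3-fold from 5 μM, were preincubated 10 min with enzyme at ambient temperature before reaction in HEPES/Brij35/MgCl2/DTT buffer (1% DMSO final), tuned to 10% peptide conversion. After EDTA stop, FAM-peptide phosphorylation was measured by Caliper EZ Reader II; IC50 fitted from percent-inhibition curves.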

CYP2C19 = target: T2, CYP2C19 (Homo sapiens, UniProt P33261); assay: CYPs inhibition in pooled human liver microsomes, probe substrate S-mephenytoin; assay type: in vitro ADME
T2 construct: 0.2 mg/mL human liver microsomes was pre-incubated in 180 μL reaction mixture; from tissue; host or cells: pooled human liver microsomes
Procedure: (§2) The inhibitory potential of test articles in pooled human liver microsomes was evaluated by the method using a cocktail of CYP substrates. […] For the negative control well, the test articles was replaced with 20 μL reaction buffer. After 10 min of pre-incubation at 37° C., 20 μL 10 mM NADPH cofactor was added to the pre-reaction mixtures. After another 10 min incubation, the reaction was stopped by adding 400 μL of ice cold acetonitrile solution containing tolbutamide and labetalol served as internal standards. The incubation mixtures were centrifuged at 4000×g for 20 min, and then the supernatants were analyzed by LC-MS/MS after dilution. SigmaPlot was applied to plot % control activity versus the test compound concentrations, and for non-linear regression analysis of the data. IC50 values of test articles were determined using 3-parameter logistic equation.

CYP2C9 = target: T3, CYP2C9 (Homo sapiens, UniProt P11712); assay: CYPs inhibition in pooled human liver microsomes, probe substrate Diclofenac; assay type: in vitro ADME
T3 construct: 0.2 mg/mL human liver microsomes was pre-incubated in 180 μL reaction mixture; from tissue; host or cells: pooled human liver microsomes
Procedure: as §2

CYP2D6 = target: T4, CYP2D6 (Homo sapiens, UniProt P10635); assay: CYPs inhibition in pooled human liver microsomes, probe substrate Dextromethorphan; assay type: in vitro ADME
T4 construct: 0.2 mg/mL human liver microsomes was pre-incubated in 180 μL reaction mixture; from tissue; host or cells: pooled human liver microsomes
Procedure: as §2

JAK1 = target: T5, JAK1 (Homo sapiens, UniProt P23458); assay: JAK1 microfluidic kinase assay (Caliper EZ Reader II, FAM labeled peptide substrate); assay type: biochemical
T5 construct: purchased Carna Biosciences
How it was run: as §1

JAK2 = target: T6, JAK2 (Homo sapiens, UniProt O60674); assay: JAK2 microfluidic kinase assay (Caliper EZ Reader II, FAM labeled peptide substrate); assay type: biochemical
T6 construct: purchased Carna Biosciences
How it was run: as §1

[1] = Liver microsomes study, Phase I stability (RLM); assay type: in vitro ADME, rat; details: pH 7.4; rat liver microsomes 0.5 mg/mL, 1 μM test article; read-out: RLM Clint
How it was run: (§3)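 Phase I turnover was followed by LC/MS/MS of parent compound remaining at 0, 10, 30 and 90 min in NADPH-fortified rat or human microsomes, with cold acetonitrile quench. Half-life and intrinsic clearance were derived from the log-linear depletion slope and the inverse protein concentration.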

TYK2 = target: T7, TYK2 (Homo sapiens, UniProt P29597); assay: TYK2 microfluidic kinase assay (Caliper EZ Reader II, FAM labeled peptide substrate); assay type: biochemical; details: IC50 TYK2 ([…]) (1 mM ATP), TYK2 […], 1 mM ATP
T7 construct: purchased Carna Biosciences
How it was run: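 Assay run at ~10% substrate conversion in 50 mM HEPES pH buffer with Brij35, MgCl2 and DTT; compounds tested up to 5 μM in 3-fold dilutions at 1% DMSO. JAK1 reacted 120 min, JAK2 20 min, JAK2V617F 30 min, TYK2 10 min before an EDTA stop.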

CYP1A2 = target: T8, CYP1A2 (Homo sapiens, UniProt P05177); assay: CYPs inhibition in pooled human liver microsomes, probe substrate Phenacetin; assay type: in vitro ADME
T8 construct: 0.2 mg/mL human liver microsomes was pre-incubated in 180 μL reaction mixture; from tissue; host or cells: pooled human liver microsomes
T8 sequence (P05177 1-516): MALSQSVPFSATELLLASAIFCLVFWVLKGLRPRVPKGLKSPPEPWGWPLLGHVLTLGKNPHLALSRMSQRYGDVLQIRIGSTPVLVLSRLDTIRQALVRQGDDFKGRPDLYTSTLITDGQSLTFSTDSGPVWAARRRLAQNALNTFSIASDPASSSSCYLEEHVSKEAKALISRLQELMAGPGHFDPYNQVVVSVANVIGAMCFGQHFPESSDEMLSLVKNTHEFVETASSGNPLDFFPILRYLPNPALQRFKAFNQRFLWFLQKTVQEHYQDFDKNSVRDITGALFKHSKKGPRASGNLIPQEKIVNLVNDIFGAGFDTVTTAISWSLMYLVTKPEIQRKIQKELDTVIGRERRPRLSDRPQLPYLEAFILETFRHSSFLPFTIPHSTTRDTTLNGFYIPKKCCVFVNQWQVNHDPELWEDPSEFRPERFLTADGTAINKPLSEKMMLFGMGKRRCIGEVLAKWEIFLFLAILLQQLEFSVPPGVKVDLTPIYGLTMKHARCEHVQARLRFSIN
Procedure: as §2

[2] = Liver microsomes study, Phase I stability (HLM); assay type: in vitro ADME, human; details: pH 7.4; human liver microsomes 0.5 mg/mL, 1 μM test article; read-out: HLM Clint
How it was run: as §3

CYP3A4 = target: T9, CYP3A4 (Homo sapiens, UniProt P08684); assay: CYPs inhibition in pooled human liver microsomes, probe substrate Midazolam; assay type: in vitro ADME
T9 construct: 0.2 mg/mL human liver microsomes was pre-incubated in 180 μL reaction mixture; from tissue; host or cells: pooled human liver microsomes
Procedure: as §2

[3] = IC50 JAK1 (5 nM) (1 m MATP), JAK1 5 nM, 1 mM ATP
[4] = IC50 JAK2 ([…]) (1 mM ATP), 1 mM ATP
[5] = IC50 JAK2 ([…]) (Km ATP), Km ATP

T2 sequence (P33261 whole entry): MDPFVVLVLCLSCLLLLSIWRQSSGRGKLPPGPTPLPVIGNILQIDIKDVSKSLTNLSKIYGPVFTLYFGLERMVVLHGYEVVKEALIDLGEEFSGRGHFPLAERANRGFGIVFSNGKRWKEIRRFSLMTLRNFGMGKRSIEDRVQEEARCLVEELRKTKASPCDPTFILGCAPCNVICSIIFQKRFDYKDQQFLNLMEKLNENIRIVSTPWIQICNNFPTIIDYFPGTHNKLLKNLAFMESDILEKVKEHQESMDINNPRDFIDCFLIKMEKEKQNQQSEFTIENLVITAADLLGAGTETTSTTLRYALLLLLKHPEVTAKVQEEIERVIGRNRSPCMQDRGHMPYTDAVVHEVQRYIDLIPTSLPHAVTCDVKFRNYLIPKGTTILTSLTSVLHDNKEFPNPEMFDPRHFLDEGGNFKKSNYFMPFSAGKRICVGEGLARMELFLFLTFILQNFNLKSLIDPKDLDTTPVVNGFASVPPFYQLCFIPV
T5 sequence (P23458 whole entry): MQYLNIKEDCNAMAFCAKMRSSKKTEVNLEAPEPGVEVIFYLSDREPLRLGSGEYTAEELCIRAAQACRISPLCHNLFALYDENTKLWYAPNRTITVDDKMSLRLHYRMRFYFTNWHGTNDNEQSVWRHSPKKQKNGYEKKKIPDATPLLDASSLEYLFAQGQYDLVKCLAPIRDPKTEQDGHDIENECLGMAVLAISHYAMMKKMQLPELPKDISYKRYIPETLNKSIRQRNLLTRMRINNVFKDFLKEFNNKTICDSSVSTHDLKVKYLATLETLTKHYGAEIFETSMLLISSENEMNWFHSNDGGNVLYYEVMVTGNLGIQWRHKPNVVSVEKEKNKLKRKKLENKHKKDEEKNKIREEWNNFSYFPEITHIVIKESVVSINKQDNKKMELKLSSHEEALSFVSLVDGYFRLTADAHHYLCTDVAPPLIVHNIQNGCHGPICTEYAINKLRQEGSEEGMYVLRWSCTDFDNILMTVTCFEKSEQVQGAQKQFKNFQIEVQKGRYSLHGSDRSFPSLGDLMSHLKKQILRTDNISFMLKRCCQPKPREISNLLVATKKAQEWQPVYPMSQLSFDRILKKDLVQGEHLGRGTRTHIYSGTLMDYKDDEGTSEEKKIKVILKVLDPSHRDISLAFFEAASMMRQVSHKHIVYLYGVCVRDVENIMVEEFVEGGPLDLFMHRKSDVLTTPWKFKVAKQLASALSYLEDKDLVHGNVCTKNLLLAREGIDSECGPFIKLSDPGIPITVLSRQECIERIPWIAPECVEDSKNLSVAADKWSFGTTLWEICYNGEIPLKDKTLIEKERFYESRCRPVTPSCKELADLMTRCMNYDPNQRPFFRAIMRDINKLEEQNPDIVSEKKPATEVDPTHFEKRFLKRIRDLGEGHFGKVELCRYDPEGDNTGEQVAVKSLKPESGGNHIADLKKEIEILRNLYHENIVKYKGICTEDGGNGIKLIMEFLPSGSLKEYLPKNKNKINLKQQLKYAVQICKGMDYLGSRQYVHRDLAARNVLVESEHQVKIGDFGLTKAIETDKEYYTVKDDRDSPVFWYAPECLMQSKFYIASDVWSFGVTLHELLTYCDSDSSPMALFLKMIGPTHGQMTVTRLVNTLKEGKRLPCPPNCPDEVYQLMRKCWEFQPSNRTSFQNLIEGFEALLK
T1 sequence (O60674 whole entry V617F): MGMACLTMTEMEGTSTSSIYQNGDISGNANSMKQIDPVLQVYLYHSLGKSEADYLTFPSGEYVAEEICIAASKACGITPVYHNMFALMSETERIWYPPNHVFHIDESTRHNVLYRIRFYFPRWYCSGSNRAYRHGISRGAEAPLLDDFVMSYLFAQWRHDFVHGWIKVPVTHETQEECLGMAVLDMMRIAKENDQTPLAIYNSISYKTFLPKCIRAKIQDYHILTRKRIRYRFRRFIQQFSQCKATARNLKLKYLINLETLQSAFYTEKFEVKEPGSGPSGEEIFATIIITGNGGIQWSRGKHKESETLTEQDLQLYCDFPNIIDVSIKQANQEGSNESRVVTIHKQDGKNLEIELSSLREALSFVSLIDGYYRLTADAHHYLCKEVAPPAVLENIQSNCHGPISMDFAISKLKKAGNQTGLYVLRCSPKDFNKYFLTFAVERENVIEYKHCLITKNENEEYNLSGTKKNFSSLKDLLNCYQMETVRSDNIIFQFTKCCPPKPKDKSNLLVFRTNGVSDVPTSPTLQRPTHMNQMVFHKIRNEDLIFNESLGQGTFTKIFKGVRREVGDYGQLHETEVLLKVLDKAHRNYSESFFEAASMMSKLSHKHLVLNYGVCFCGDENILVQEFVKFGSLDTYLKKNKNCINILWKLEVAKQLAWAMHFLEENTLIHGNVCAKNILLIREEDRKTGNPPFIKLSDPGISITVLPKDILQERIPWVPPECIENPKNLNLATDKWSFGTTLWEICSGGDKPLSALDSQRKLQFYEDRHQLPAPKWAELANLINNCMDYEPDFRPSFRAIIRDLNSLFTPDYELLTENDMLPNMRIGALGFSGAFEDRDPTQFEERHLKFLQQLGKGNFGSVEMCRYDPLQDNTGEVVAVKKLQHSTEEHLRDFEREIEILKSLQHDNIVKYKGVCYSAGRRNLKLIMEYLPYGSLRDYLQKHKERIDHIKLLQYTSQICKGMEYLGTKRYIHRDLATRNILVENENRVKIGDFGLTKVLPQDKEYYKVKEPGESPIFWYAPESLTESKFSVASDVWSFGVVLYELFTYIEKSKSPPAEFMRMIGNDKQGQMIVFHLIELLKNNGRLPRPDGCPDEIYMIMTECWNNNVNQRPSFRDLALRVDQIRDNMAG
T9 sequence (P08684 whole entry): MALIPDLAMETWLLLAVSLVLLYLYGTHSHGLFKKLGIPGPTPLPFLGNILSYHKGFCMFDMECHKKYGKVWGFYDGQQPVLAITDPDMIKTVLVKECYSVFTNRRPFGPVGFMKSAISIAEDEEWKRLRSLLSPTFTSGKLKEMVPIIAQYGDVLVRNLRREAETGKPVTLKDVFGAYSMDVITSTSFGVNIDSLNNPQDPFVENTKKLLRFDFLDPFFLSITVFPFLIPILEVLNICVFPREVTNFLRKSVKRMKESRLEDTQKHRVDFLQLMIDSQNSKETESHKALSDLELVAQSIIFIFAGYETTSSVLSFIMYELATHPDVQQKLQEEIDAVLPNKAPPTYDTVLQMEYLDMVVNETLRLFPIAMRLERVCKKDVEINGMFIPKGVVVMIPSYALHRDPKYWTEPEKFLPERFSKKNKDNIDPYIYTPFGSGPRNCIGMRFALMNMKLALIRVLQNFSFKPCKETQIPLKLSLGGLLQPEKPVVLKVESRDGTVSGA
T4 sequence (P10635 whole entry): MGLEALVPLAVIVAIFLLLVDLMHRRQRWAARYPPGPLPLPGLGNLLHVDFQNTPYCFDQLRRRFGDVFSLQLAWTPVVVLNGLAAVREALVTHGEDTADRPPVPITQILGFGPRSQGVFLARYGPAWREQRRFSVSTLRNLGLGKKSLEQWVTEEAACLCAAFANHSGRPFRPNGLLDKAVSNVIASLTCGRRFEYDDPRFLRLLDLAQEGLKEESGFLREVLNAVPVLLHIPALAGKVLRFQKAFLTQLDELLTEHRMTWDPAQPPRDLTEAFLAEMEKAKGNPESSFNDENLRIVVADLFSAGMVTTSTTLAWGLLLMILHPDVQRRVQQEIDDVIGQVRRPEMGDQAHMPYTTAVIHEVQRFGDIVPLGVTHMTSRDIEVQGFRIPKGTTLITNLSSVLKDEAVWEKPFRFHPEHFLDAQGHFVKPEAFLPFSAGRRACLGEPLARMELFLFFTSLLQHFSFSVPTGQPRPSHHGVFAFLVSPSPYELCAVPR
T7 sequence (P29597 whole entry): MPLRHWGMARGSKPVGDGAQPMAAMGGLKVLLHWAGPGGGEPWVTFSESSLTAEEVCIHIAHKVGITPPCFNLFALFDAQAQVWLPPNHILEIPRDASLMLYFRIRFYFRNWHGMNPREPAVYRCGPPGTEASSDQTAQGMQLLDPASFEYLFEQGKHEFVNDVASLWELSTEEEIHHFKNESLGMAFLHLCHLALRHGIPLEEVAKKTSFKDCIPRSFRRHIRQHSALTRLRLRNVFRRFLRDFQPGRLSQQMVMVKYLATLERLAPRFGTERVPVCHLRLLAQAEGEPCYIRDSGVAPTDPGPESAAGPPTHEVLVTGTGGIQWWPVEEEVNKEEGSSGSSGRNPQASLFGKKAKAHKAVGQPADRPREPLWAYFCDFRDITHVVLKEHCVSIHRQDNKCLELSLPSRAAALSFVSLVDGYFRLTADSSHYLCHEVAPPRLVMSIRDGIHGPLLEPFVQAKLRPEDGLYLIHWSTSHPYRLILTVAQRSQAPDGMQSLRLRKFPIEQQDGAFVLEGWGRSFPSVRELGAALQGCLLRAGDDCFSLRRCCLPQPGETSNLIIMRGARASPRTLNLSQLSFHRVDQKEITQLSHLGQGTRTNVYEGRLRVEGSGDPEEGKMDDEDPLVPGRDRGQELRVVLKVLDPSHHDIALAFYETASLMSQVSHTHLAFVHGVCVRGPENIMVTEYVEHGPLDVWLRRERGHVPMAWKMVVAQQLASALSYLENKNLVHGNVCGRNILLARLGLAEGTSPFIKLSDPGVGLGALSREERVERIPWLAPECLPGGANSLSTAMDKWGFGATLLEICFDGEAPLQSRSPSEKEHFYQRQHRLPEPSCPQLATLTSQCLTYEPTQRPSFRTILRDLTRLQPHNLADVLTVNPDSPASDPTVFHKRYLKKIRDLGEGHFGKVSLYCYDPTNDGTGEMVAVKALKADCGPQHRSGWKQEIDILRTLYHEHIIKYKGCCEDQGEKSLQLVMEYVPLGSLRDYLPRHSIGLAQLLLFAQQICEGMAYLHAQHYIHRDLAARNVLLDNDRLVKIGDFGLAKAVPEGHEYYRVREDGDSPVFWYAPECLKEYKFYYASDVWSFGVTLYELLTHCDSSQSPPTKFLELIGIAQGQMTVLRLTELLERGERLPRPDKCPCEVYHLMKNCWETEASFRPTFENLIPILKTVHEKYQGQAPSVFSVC
T6 sequence (O60674 whole entry): as the sequence (O60674 whole entry V617F) above, with F617V counted along it

SMILES | IC50 (JAK2V617F) [nM] | IC50 (CYP2C19) [nM] | IC50 (CYP2C9) [nM] | IC50 (CYP2D6) [nM] | IC50 (JAK1; [3]) [nM] | IC50 (JAK2; [4]) [nM] | microsomal CLint at 1 μM [1] [µL/min/mg] | IC50 (TYK2) [nM] | IC50 (CYP1A2) [nM] | microsomal CLint at 1 μM [2] [µL/min/mg] | IC50 (CYP3A4) [nM] | IC50 (JAK2; [5]) [nM] | IC50 (JAK1; IC50 JAK1 (10 nM) (Km ATP), JAK1 10 nM, Km ATP) [nM]
COC[C@@H](C#N)NC(=O)c1ccc(-c2nc(Nc3cnn(C4CCN(C)CC4)c3)ncc2C)cc1 [Example 213, (R)—N-(1-Cyano-2-methoxyethyl)-4-(5-methyl-2-((1-(1-methylpiperidin-4-yl)-1H-pyrazol-4-yl)amino)pyrimidin-4-yl)benzamide] |  | > 50000 | > 50000 | 19400 | 4.61 | 1.73 |  | 17.4 | > 50000 |  | > 50000 |  | 
CC(=O)N1CCC(n2cc(Nc3ncc(C)c(-c4ccc(C(=O)NCC#N)cc4)n3)cn2)CC1 [Example 20, 4-(2-((1-(1-Acetylpiperidin-4-yl)-1H-pyrazol-4-yl)amino)-5-methylpyrimidin-4-yl)-N-(cyanomethyl)benzamide] | 13.7 | > 50000 | > 50000 | > 50000 |  | 0.3 | < 9.6 |  | > 50000 | < 9.6 | > 50000 | 0.25 | 
Cc1cnc(Nc2cnn(C3CCN(CC(F)F)CC3)c2)nc1-c1ccc(C(=O)NCC#N)cc1 [Example 19, N-(Cyanomethyl)-4-(2-((1-(1-(2,2-difluoroethyl)piperidin-4-yl)-1H-pyrazol-4-yl)amino)-5-methylpyrimidin-4-yl)benzamide] |  | > 50000 | > 50000 | > 50000 |  |  | 49.2 |  | > 50000 | 33.7 | > 50000 | 0.65 | 1.92
C[C@@H](C#N)NC(=O)c1ccc(-c2nc(Nc3cnn(C4CCN(C)CC4)c3)ncc2F)cc1 [Example 50, (S)—N-(1-cyanoethyl)-4-(5-fluoro-2-((1-(1-methylpiperidin-4-yl)-1H-pyrazol-4-yl)amino)pyrimidin-4-yl)benzamide] | 186 | > 50000 | > 50000 | > 50000 | 91.2 | 110 |  | 218 | > 50000 | 8.92 | > 50000 |  | 
CC[C@@H](C#N)NC(=O)c1ccc(-c2nc(Nc3cnn(CC#N)c3)ncc2C)cc1 [Example 55, (S)-4-(2-((1-(cyanomethyl)-1H-pyrazol-4-yl)amino)-5-methylpyrimidin-4-yl)-N-(1-cyanopropyl)benzamide] |  | > 50000 | > 50000 | 19000 | 4.33 | 48.7 |  | 48.2 | 44800 |  | 21500 |  | 

Further lines, results first:

IC50 (JAK2V617F) [nM] | IC50 (CYP2C19) [nM] | IC50 (CYP2C9) [nM] | IC50 (CYP2D6) [nM] | IC50 (JAK1; [3]) [nM] | IC50 (JAK2; [4]) [nM] | microsomal CLint at 1 μM [1] [µL/min/mg] | IC50 (TYK2) [nM] | IC50 (CYP1A2) [nM] | microsomal CLint at 1 μM [2] [µL/min/mg] | IC50 (CYP3A4) [nM] | IC50 (JAK2; [5]) [nM] | IC50 (JAK1; IC50 JAK1 (10 nM) (Km ATP), JAK1 10 nM, Km ATP) [nM] | SMILES
31.7 | > 50000 | > 50000 | > 50000 | 3.83 | 1.02 | 34.5 | 10.6 | > 50000 | 4.64 | > 50000 |  |  | Cc1cnc(Nc2cnn(C3CCN(C)CC3)c2)nc1-c1ccc(C(=O)N[C@@H](C)C#N)cc1 [Example 48, (S)—N-(1-cyanoethyl)-4-(5-methyl-2-((1-(1-methylpiperidin-4-yl)-1H-pyrazol-4-yl)amino)pyrimidin-4-yl)benzamide]
 | > 50000 | > 50000 | > 50000 | 2.86 | 27.1 |  | 27.3 | > 50000 |  | > 50000 |  |  | Cc1cnc(Nc2cnn(CCO)c2)nc1-c1ccc(C(=O)N[C@@H](C)C#N)cc1 [Example 200, (S)—N-(1-cyanoethyl)-4-(2-((1-(2-hydroxyethyl)-1H-pyrazol-4-yl)amino)-5-methylpyrimidin-4-yl)benzamide]
2.42 | 24000 | 45300 | 41900 | 0.82 | 0.61 | 221 | 6.68 | > 50000 | 22.8 | 32100 |  |  | CC[C@@H](C#N)NC(=O)c1ccc(-c2nc(Nc3cnn(C4CCN(C)CC4)c3)ncc2Cl)cc1 [Example 88, (S)-4-(5-chloro-2-((1-(1-methylpiperidin-4-yl)-1H-pyrazol-4-yl)amino)pyrimidin-4-yl)-N-(1-cyanopropyl)benzamide]
 | > 50000 | > 50000 | > 50000 | 1.93 | 24.6 | 14.8 | 1.74 | > 50000 | 5.05 | > 50000 |  |  | CC[C@@H](C#N)NC(=O)c1ccc(-c2nc(Nc3cnn(CCO)c3)ncc2C)cc1 [Example 172, (S)—N-(1-cyanopropyl)-4-(2-((1-(2-hydroxyethyl)-1H-pyrazol-4-yl)amino)-5-methylpyrimidin-4-yl)benzamide]
 | > 50000 | > 50000 | > 50000 | 5.7 | 41 |  | 28 | > 50000 |  | > 50000 |  |  | Cc1cnc(Nc2cnn(CCO)c2)nc1-c1ccc(C(=O)N[C@H](C#N)C2CC2)cc1 [Example 215, (S)—N-(cyano(cyclopropyl)methyl)-4-(2-((1-(2-hydroxyethyl)-1H-pyrazol-4-yl)amino)-5-methylpyrimidin-4-yl)benzamide]
61.1 | > 50000 | > 50000 | 30700 | 3.61 | 26.4 |  | 5.42 | > 50000 |  | > 50000 |  |  | CC[C@@H](C#N)NC(=O)c1ccc(-c2nc(Nc3cnn(C(C)C(F)(F)F)c3)ncc2C)cc1 (stereo partly drawn) [Example 195, N—((S)-1-cyanopropyl)-4-(5-methyl-2-((1-(1,1,1-trifluoropropan-2-yl)-1H-pyrazol-4-yl)amino)pyrimidin-4-yl)benzamide]
 | > 50000 | 38100 | 37800 | 1.2 | 4.4 | 14.4 | 2.64 | > 50000 | 7.06 | > 50000 |  |  | CC[C@@H](C#N)NC(=O)c1ccc(-c2nc(Nc3cnn(CCO)c3)ncc2Cl)cc1 [Example 167, (S)-4-(5-Chloro-2-((1-(2-hydroxyethyl)-1H-pyrazol-4-yl)amino)pyrimidin-4-yl)-N-(1-cyanopropyl)benzamide]
2.89 | 10400 | 5930 | 1760 | 6.44 | < 0.25 |  | 20.4 | 24500 |  | 31500 |  |  | Cc1cnc(Nc2cnn(C3CCC(O)CC3)c2)nc1-c1ccc(C(=O)NCC#N)cc1 (stereo not shown) [Example 132, N-(Cyanomethyl)-4-(2-((1-(4-hydroxycyclohexyl)-1H-pyrazol-4-yl)amino)-5-methylpyrimidin-4-yl)benzamide]
